The test system of assay [1] is mouse metallothionein expression (MT1 and MT2) in renal and hepatic tissue. Kind of assay: RT-PCR of metallothionein expression in tissue of treated mice. It is filed as in vivo, FVB/NJ mice. Particulars: ZNA 100 mg/kg intraperitoneal. As for the experimental part: Real-Time PCR (RT-PCR): For experiments designed to measure gene expression, real-time PCR (RT-PCR) was conducted using a LightCycler 480 (Roche, Basel, Switzerland) and KAPA SYBR FAST qPCR Master Mix (Kapa Biosystems, Boston, Mass., USA). […] Genomic DNA was removed with a DNase digest and 1 μg of RNA was used to synthesize cDNA using a Superscript III Reverse Transcriptase kit from Invitrogen per the manufacturer's protocol; after an RNase H digestion, RT-PCR was performed in a 5 μL reaction using KAPA SYBR FAST qPCR Master Mix (Kapa Biosystems, Boston, Mass., USA). […]; Nat Protocols 2008; 3(6):1101-08. For tissue derived from mouse in vivo experiments, fresh tissue was homogenized using a TissueLyser II for 3 minutes at 30 Hz before isolating RNA.
The next experiment established the relevancy of the biological pathways targeted by ZNA in a whole organism tumor model. To establish bioactivity, the response of normal tissue to ZNA was evaluated. Non-tumor bearing FVB/NJ mice were treated with ZNA (at 100 mg/kg administered via intraperitoneal injection) or a control for either 3 or 24 hours. RT-PCR was used to assess mouse metallothionein expression (MT1 and MT2) in renal and hepatic tissue from the treated mice.

A short description of assay [2]: Isothermal titration calorimetry of the small molecule with zinc or copper. It is filed as binding. Particulars: ITC, data not shown. For orientation: ITC needs no label: the signal is the heat of the interaction.
The subject of assay [3] is untransformed MCF-10A cells. Description: Clonogenic cell survival assay. Particulars: 24 hours ZNA, then three weeks of growth, crystal violet.
Description: Clonogenic cell survival assays were conducted as described in Franken NAP, Rodermond H M, Stap J, Haveman J, van Bree C.
Further experiments were also conducted to assess the effects of short-term ZNA treatment on long-term cell survival and proliferation. Cells were treated for 24 hours with ZNA then cultured in the absence of the small molecule; following three weeks of growth, colonies were stained with crystal violet and quantified (FIG. 1D).
The nature of assay [4]: Zn^2+ binding, (ZNA)2Zn dimer formation (MeOH precipitation, X-ray, NMR). From the text:
The structure of the solid product was confirmed by X-ray crystallography (FIG. 14B). […] HCl in D2O protonates the ligand off the metal center, as evidenced by the disappearance of the diastereotopic benzyllic AB quartet in the dimer and its appearance as a singlet in the monomer. […] Of the analogues evaluated, those with more electron-donating groups at C5 or on the N^2-carbonyl seem to improve activity.

In another assay the test system is LC3 in MCF-10A cells. Kind of assay: Western blot of autophagosome-associated protein LC3A/B. In kind it is cell-based, human. As for the experimental part:
Western blot analysis: For analysis of protein expression by Western blot analysis, the procedure set forth in Gligorich et al. was used. Gligorich K, Vaden R, Shelton D, Wang G, Matsen C, Looper R, et al. Development of a screen to identify selective small molecules active against patient-derived metastatic and chemoresistant breast cancer cells. Breast Cancer Res 2013; 15(4):R58. The cells were cultured and treated in 10-cm plates. Cells were harvested in cold radioimmunoprecipitation assay (RIPA) buffer (50 mM Tris-HCl, 150 mM NaCl, 0.1% sodium dodecyl sulfate (SDS), 0.5% sodium deoxycholate, and 1% Triton X-100) supplemented with protease and phosphatase inhibitors (Sigma). Protein concentration was measured using a BCA assay (Thermo Scientific) and […] of protein was resolved by gel electrophoresis using an SDS polyacrylamide gel. Protein was transferred to an Immobilon-FL PVDF membrane (Millipore, Billerica, Mass., USA) and the membrane was blocked for 1 hour at room temperature with Odyssey blocking buffer (Li—COR). […]
Further cell death characterization studies were also conducted to establish the role of autophagy in ZNA-mediated cell death. To assess the level of autophagic induction following treatment with ZNA, levels of the autophagosome-associated protein LC3A/B were measured by western blot analysis. […]
(In western blotting, separated proteins are transferred to a membrane and probed.)

In assay [5] the test system is metal trafficking genes in MCF-7, T47D, MDA-MB-231 and MCF-10A cells. Kind of assay: Real-time PCR of metal trafficking genes. It is filed as cell-based, human. The note with it: 30 μM ZNA, 3 or 24 hours, four cell lines. How it is done: Real-Time PCR (RT-PCR): For experiments designed to measure gene expression, real-time PCR (RT-PCR) was conducted using a LightCycler 480 (Roche, Basel, Switzerland) and KAPA SYBR FAST qPCR Master Mix (Kapa Biosystems, Boston, Mass., USA). […] Genomic DNA was removed with a DNase digest and 1 μg of RNA was used to synthesize cDNA using a Superscript III Reverse Transcriptase kit from Invitrogen per the manufacturer's protocol; after an RNase H digestion, RT-PCR was performed in a 5 μL reaction using KAPA SYBR FAST qPCR Master Mix (Kapa Biosystems, Boston, Mass., USA). The following primer sets were used: MT1F 5′-[…] -3′ (SEQ ID NO:1) and 5′-[…] -3′ (SEQ ID NO:2); MT1X 5′-[…] -3′ (SEQ ID NO:3) and 5′-[…] -3′ (SEQ ID NO:4); MT2A 5′-[…] -3′ (SEQ ID NO:5) and 5′-[…] -3′ (SEQ ID NO:6); SLC30A2 5′-[…] -3′ (SEQ ID NO:7) and 5′-[…] -3′ (SEQ ID NO:8); SLC30A1 5′-[…] -3′ (SEQ ID NO:9) and 5′-[…] -3′ (SEQ ID NO:10). Data were normalized to an internal reference gene (GAPDH 5′-[…] -3′ (SEQ ID NO:11) and 5′-[…] -3′ (SEQ ID NO:12)) and relative gene expression was assessed using the comparative CT method set forth in Schmittgen T D, Livak K J. Analyzing real-time PCR data by the comparative CT method. Nat Protocols 2008; 3(6):1101-08. For tissue derived from mouse in vivo experiments, fresh tissue was homogenized using a TissueLyser II for 3 minutes at 30 Hz before isolating RNA. […]
(In general: Real-time PCR tracks product formation cycle by cycle.)

In the next assay the test system is MCF-10A cells. Kind of assay: Cellular proliferation, EdU incorporation assay. It is filed as cell-based, human. The note with it: ZNA/ZnSO4, 6 hours.

The structures appear in SMILES notation.

Consider `COc1ccc(-c2c(Cc3ccccc3)[nH]/c(=N\C(=O)c3ccccc3F)n2C)cc1` [ZNA, (E)-N-(4-benzyl-5-(4-methoxyphenyl)-1-methyl-1H-imidazol-2(3H)-ylidene)-2-fluorobenzamide], for which the “MT1 and MT2 expression” value in assay [1] (3 hours, vs control treated mice) is “increased”; in assay [1] (24 hours), “decreased”. The “direct interaction with zinc or copper” value in assay [2] is “no evidence to suggest direct binding”. Also, the “long-term proliferative potential (colonies)” value in assay [3] is given as “greatly attenuated”. In addition, in assay [4], the “Zn^2+ binding” value is “binds Zn^2+ in a pH dependent fashion”. The LC3 protein result in the assay with LC3 in MCF-10A cells (30 μM ZNA with 30 μM ZnSO4, 6 hours) is given as “significant increases were not observed”. In addition, the LC3 level entry in the assay with LC3 in MCF-10A cells (ZNA alone, 48 and 72 hours) was “only in the cancer cell lines”. In addition, the “transcription of metal trafficking genes” value in assay [5] was “stimulated transcriptional increases”. For the same compound, the “proliferation (EdU)” value in the assay on MCF-10A cells was “somewhat affected”.
